Test results taken from patent US20240415804A1, “METHOD OF TREATING PANCREATIC CANCER” (University of South Florida, priority 2022, published 2024).

Assays:
miR-155 [1] = assay: miR-155 gene expression by RT-qPCR in UN-KC-6141 cells; assay type: cell-based, mouse; settings: API 40 μM, 24 h, vs DMSO vehicle
Procedure: MiR-155 is known to be overexpressed in different cancers, including PC^21, 23. The inventors first assessed whether apigenin could modulate the expression of miR-155 in PC cells. Murine PC cell lines Panc02 and UN-KC-6141 as well as the human PC cell line MiaPaCa-2 were treated with API (40 μM) or DMSO vehicle for 24 h and the expression of miR-155 was examined using RT-qPCR assay. […] Since API is known to inhibit the growth of cancer cells, including PC cells^39-43, 47-50, the same PC cell lines were treated with API (40 μM) or DMSO (vehicle) for 24 h and examined cell viability using MTT assay. […] Moreover, Panc02 and UN-KC-6141 cells were then treated with API at a dose dependent concentration (10, 20, 30, 40, 50 μM) and detected apoptosis using flow cytometry (Annexin V and PI).
miR-155 is implicated in the development of pancreatic tumors from pancreatic intraepithelial neoplasia (PanIN) lesions, and is overexpressed in PC^23. The inventors examined whether the depletion of miR-155 modulated PC viability. Murine and human PC cell lines were transfected with miR-155 inhibitor (i.e., MMU-MIR-155-5P/HSA-MIR-155-5P) and scrambled miRNA at a concentration of 100 nM for 24 h and cell viability determined using an MTT assay. The expression of miR-155 was examined using an RT-qPCR assay as well. […]

Panc02 cells = assay: MTT cell viability assay, Panc02; assay type: cell-based, mouse; settings: API 40 μM, 24 h, vs DMSO vehicle
Procedure: The methyl thiazol tetrazolium (MTT) assay was performed as described previously^58. Briefly, MiaPaCa-2, Panc02 and UN-KC-6141 cells were seeded in 96-well plates at a density of 3000 cells/well and allowed to attach overnight. PC cells were then treated with API (40 μM) or DMSO (1%) as vehicle control for 24 h at 37° C. in 5% CO2 incubator. After 24 h, media was replaced with 20 μL of MTT (1 mg/mL) (Sigma-Aldrich) and incubated for 3 h at 37° C. in 5% CO2. MTT was replaced with DMSO, and absorbance was read at 570 nm.
MiaPaCa-2, Panc02 and UN-KC-6141 cells (2×10^5) were grown in 2 mL of growth medium in a 6-well tissue culture plate for 18-24 h until 60-80% confluency. The following solutions were prepared: Solution A) For each transfection, diluted 1 μL of miRNA-155 inhibitors (1 μM) (Table 2) or scrambled negative control miRNA (1 μM) (Qiagen, Germantown, MD, USA) into 50 μL Opti-MEM Transfection Medium (Invitrogen, Waltham, MA, USA). Solution B) For each transfection, diluted 3 μL of Hi-Perfect Transfection Reagent into 50 μL Opti-MEM Transfection Medium. Solution A was added directly to Solution B, mixed gently and the mixture incubated for 10-15 min at room temperature. […]

miR-155 [2] = assay: miR-155 gene expression in BM and tumor of OPC mice; assay type: in vivo, mouse; settings: API 25 mg/kg IP 3 times per week for 2-3 weeks, vs OPC mice
Procedure: The inventors reported recently that API reduced tumor growth in an orthotopic (O) mouse model of PC (OPC)^12, which is a more clinically relevant model^69. To investigate if API targets miR-155 and regulates SHIP-1 expression in the BM and tumor of an OPC mouse model, OPC mice were treated with API at a dose of 25 mg/kg (IP) 3 times per week for 2-3 weeks. […] To generate orthotopic pancreatic models (OPC), anesthetized (1.5-3% isoflurane) mice were injected in the neck of the pancreas, via laparotomy^59, with sterile PBS (CTRL) or 1.25×10^4 Panc02 cells (OPC), in sterile 1×PBS. Once pancreatic tumors were confirmed through ultrasound imaging (Vevo 2100), a cohort of OPC mice received API (25 mg/kg, 100 μL volume) while CTRL and OPC mice received sterile PBS (vehicle), all via IP, three times per week until the end of the study^12. […] The PCR cycling parameters were 95° C. for 10 min followed by 40 cycles of a denaturing step at 95° C. for 15 s and an annealing/extension step at 60° C. for 1 min. All reactions were performed in triplicate. Relative expression of miR-155 was calculated using the comparative […] method normalized to a mouse endogenous control gene snoRNA202 and human endogenous control gene U6 (Assay IDs: 001232 and 001093).

[3] = tested on: orthotopic (O) mouse model of PC (OPC); settings: earlier report (ref 12), cited from earlier work
PC-bearing mice = settings: cited from earlier work
[4] = PC mouse model treated with API, earlier report (ref 12)
[5] = PC-bearing mice, previous results (ref 12)

## O=c1cc(-c2ccc(O)cc2)oc2cc(O)cc(O)c12 [API, 40,5,7-Trihydroxyflavone, 5,7-Dihydroxy-2-(4-hydroxyphenyl)-4-benzopyrone]
miR-155 [1]
  miR-155 gene expression: significantly suppressed
Panc02 cells
  cell viability (MTT): significantly inhibited
miR-155 [2]
  miR-155 gene expression in BM: inhibit the overexpression
  miR-155 gene expression in pancreatic tumor: significant decrease
[3]; API treatment of OPC mice
  necrosis of pancreatic tumor cells (H&E staining): induced necrosis
[3]; OPC mouse model
  tumor growth: reduced
PC-bearing mice; PC mice, previous report (refs 12, 55)
  tumor weights: decreases
PC-bearing mice; [4]
  intratumoral Treg percentages: significant reduction
  splenic Treg percentages: significant reduction
PC-bearing mice; [5]
  IFN-γ production from intratumoral CD8+ T cells: increases
  granzyme B: increases
  perforin: increases
